# Measured values taken from patent US20230263792A1, “USE OF 2,3,5-SUBSTITUTED THIOPHENE COMPOUND FOR PREVENTING, ALLEVIATION, OR TREATING MASTOCYTOSIS” (PHAROS IBIO CO., LTD, priority 2020, published 2023).
# Assays:
# [1] = test system: HMC-1.2 cell line (imatinib-resistant cell line, having c-kit G560V/D816V mutation); experiment: Growth inhibition of mastocytosis cell line HMC-1.2; format: cell-based; details: HMC-1.2, 72 hours
# Procedure: [Worded in the source for another cell line; this cell line is reported under the same test.] Specifically, 100 μl of a Ba/F3 cell line with a c-kit D816V mutation (FIG. 1) was added to each well of a 96-well plate at a concentration of 10,000 cells/100 μl. […] As the control compounds, imatinib and sunitinib which are c-kit inhibitors were used.
# [2] = Body weight monitoring in mastocytosis mouse model; format: in vivo, NOD SCID female mice; details: 80 mg/kg oral once daily for 3 weeks
# Procedure: Thereafter, when the average tumor volume reached 150 to 200 mm^3, 4 mice were assigned to each group so that the average tumor volume at each group and treatment time was the same between the groups. Then, each of imatinib at a dose of 90 mg/kg, sunitinib at doses of 20 and 40 mg/kg, and PHI-101 at doses of 7, 20, 40 and 80 mg/kg was administered orally to the mice once daily for 3 weeks. For oral administration, each compound was dissolved in 5% 1-methyl-2-pyrrolidone and then completely mixed in 15% Kolliphor, 30% PEG E400 HS15 and 50% 0.05M citric acid.
# Specifically, while the presence or absence of abnormalities in the mastocytosis mouse model of Example 3-1 was monitored daily by checking the skin condition, bleeding and stool status, whether the body weight changed was checked by measuring the mouse body weight at intervals of 3 days after the start of oral administration of each drug. In addition, the width and length of the tumor were measured using a caliper at 3-day intervals, and the tumor volume was calculated using the following equation.
# [3] = target: T1, KIT (V559D, T670I) (Homo sapiens, UniProt P10721, T670I/V559D); experiment: Kinase binding assay (Kd, qPCR detection)
# T1 construct: T7 phage fusion or DNA label for qPCR detection; made in house; host or cells: T7 phage in E. coli BL21-derived host, or HEK-293 cells (both named)
# T1 sequence (P10721 26-976 V559D/T670I): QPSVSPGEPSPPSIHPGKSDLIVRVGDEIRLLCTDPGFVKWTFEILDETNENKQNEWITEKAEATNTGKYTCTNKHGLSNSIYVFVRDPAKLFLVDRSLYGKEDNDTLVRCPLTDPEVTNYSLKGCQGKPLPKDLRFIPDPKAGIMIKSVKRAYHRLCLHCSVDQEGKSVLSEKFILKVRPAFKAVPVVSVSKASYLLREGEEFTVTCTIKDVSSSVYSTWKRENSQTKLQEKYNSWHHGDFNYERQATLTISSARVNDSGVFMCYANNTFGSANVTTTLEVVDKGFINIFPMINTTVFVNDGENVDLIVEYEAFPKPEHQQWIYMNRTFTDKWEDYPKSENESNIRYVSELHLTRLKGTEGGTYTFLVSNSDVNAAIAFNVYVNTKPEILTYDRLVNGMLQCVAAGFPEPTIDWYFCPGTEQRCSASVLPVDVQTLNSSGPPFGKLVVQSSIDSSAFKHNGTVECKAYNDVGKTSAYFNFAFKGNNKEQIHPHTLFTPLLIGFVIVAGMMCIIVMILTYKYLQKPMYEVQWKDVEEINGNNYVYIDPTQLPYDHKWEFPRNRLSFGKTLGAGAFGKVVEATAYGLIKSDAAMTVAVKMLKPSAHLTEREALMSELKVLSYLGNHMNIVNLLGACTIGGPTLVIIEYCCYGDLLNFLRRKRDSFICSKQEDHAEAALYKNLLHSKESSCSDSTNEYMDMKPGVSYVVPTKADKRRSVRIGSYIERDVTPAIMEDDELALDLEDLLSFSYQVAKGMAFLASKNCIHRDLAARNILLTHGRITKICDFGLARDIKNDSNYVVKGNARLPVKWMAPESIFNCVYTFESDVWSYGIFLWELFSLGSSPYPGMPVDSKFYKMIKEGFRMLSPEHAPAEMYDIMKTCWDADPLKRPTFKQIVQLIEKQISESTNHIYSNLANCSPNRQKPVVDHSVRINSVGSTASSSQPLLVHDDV
# Procedure: (§1) A kinase-tagged T7 phage strain was prepared from an E. coli host derived from a BL21 strain. E. coli was grown in log-phase, infected with T7 phage, and then incubated with shaking at 32° C. until lysis. The lysates were centrifuged and filtered to remove cell debris. Thereafter, the kinase produced in HEK-293 cells was labeled with DNA for qPCR detection. Streptavidin-coated magnetic beads were treated with biotinylated small molecule ligand for 30 minutes at room temperature to produce affinity resins for kinase assay. The liganded beads were blocked with excess biotin and washed with blocking buffer (SeaBlock(Pierce), 1% BSA, 0.05% Tween 20, 1 mM DTT) to remove unbound ligand and to reduce nonspecific binding. Binding reactions were induced by combining kinase, ligand affinity beads and PHI-101 in 1× binding buffer (20% SeaBlock, 0.17× PBS, 0.05% Tween 20, 6 mM DTT). PHI-101 was prepared as a 111X stock in 100% DMSO. The binding constant (Kd) was determined using an 11-point 3-fold compound dilution series with three DMSO control points. All compounds for Kd measurements were dispensed by acoustic transfer (non-contact dispensing) in 100% DMSO. The compounds were then diluted directly into the assays such that the final concentration of DMSO was 0.9%. All reactions were performed in polypropylene 384-well plates at a final volume of 0.02 ml. The assay plates were incubated at room temperature with shaking for 1 hour and the affinity beads were washed with wash buffer (1× PBS, 0.05% Tween 20). The beads were then re-suspended in elution buffer (1× PBS, 0.05% Tween 20, 0.5 μM non-biotinylated affinity ligand) and incubated at room temperature with shaking for 30 minutes. The kinase concentration in the eluates was measured by qPCR.
# (§2) 11-point 3-fold serial dilutions of each test compound were prepared in 100% DMSO at 100×final test concentration and then diluted to 1× in the assay (final DMSO concentration=1%). Most Kd values were determined using a compound top concentration=30,000 nM. If the initial Kd determined was <0.5 nM (lowest concentration tested), the measurement was repeated with a serial dilution starting at a lower top concentration.
# (§3) The Kd value of c-kit protein was calculated with a standard dose-response curve (Equation 1) using the Hill equation.
# (§4) The Hill Slope was set to −1. Curves were fitted using a non-linear least square fit with the Levenberg-Marquardt algorithm.
# [4] = target: T2, KIT (D816V) (Homo sapiens, UniProt P10721, D816V); experiment: Kinase binding assay (Kd, qPCR detection)
# T2 construct: T7 phage fusion or DNA label for qPCR detection; made in house; host or cells: T7 phage in E. coli BL21-derived host, or HEK-293 cells (both named)
# T2 sequence (P10721 26-976 D816V): as the sequence (P10721 26-976 V559D/T670I) above, with D534V, I645T, D791V counted along it
# Procedure: as §1, §2, §3, §4
# [5] = target: T3, KIT (D816H) (Homo sapiens, UniProt P10721, D816H); experiment: Kinase binding assay (Kd, qPCR detection)
# T3 construct: T7 phage fusion or DNA label for qPCR detection; made in house; host or cells: T7 phage in E. coli BL21-derived host, or HEK-293 cells (both named)
# T3 sequence (P10721 26-976 D816H): as the sequence (P10721 26-976 V559D/T670I) above, with D534V, I645T, D791H counted along it
# Procedure: as §1, §2, §3, §4
# [6] = target: T4, KIT (L576P) (Homo sapiens, UniProt P10721, L576P); experiment: Kinase binding assay (Kd, qPCR detection)
# T4 construct: T7 phage fusion or DNA label for qPCR detection; made in house; host or cells: T7 phage in E. coli BL21-derived host, or HEK-293 cells (both named)
# T4 sequence (P10721 26-976 L576P): as the sequence (P10721 26-976 V559D/T670I) above, with D534V, L551P, I645T counted along it
# Procedure: as §1, §2, §3, §4
# [7] = target: T5, KIT (A829P) (Homo sapiens, UniProt P10721, A829P); experiment: Kinase binding assay (Kd, qPCR detection)
# T5 construct: T7 phage fusion or DNA label for qPCR detection; made in house; host or cells: T7 phage in E. coli BL21-derived host, or HEK-293 cells (both named)
# T5 sequence (P10721 26-976 A829P): as the sequence (P10721 26-976 V559D/T670I) above, with D534V, I645T, A804P counted along it
# Procedure: as §1, §2, §3, §4
# [8] = target: T6, KIT (V559D, V654A) (Homo sapiens, UniProt P10721, V559D/V654A); experiment: Kinase binding assay (Kd, qPCR detection)
# T6 construct: T7 phage fusion or DNA label for qPCR detection; made in house; host or cells: T7 phage in E. coli BL21-derived host, or HEK-293 cells (both named)
# T6 sequence (P10721 26-976 V559D/V654A): as the sequence (P10721 26-976 V559D/T670I) above, with V629A, I645T counted along it
# Procedure: as §1, §2, §3, §4
# [9] = target: T7, KIT (V559D) (Homo sapiens, UniProt P10721, V559D); experiment: Kinase binding assay (Kd, qPCR detection)
# T7 construct: T7 phage fusion or DNA label for qPCR detection; made in house; host or cells: T7 phage in E. coli BL21-derived host, or HEK-293 cells (both named)
# T7 sequence (P10721 26-976 V559D): as the sequence (P10721 26-976 V559D/T670I) above, with I645T counted along it
# Procedure: as §1, §2, §3, §4
# [10] = test system: c-kit D816V mutant Ba/F3 cell line; experiment: Cell cycle FACS assay, c-kit D816V Ba/F3; format: cell-based; details: 1 μM, 24 hours, FIGS. 4 and 5
# Procedure: The c-kit D816V mutant Ba/F3 cell line was treated with 1 μM of PHI-101, and then the SubG1/GO-1 population was analyzed by cell cycle FACS assay.
# Specifically, the c-kit D816V mutant Ba/F3 cell line was adjusted to a concentration of 1×10^6 cells/ml and treated with each of PHI-101 and the control compound sunitinib at a concentration of 1 μM for 24 hours. Thereafter, the medium was removed, and the c-kit D816V mutant Ba/F3 cell line was fixed in 70% ethanol at 4° C. for 24 hours, and then incubated in a PBS buffer solution containing 40 μg/ml of propidium iodide (PI) and 100 μg/ml of RNase for 30 minutes to completely stain the total DNA. Cell cycle analysis of the stained cells was performed using a flow cytometer (FACS-C6, BD). The proportion of cells in G0/G1 phase, S phase and G2/M phase was measured, and based on the measurement results, the SubG1/G0-1 population was determined.
structure (smiles),measurement,setting,value
NC(=O)Nc1cc(C#Cc2cccc(F)c2)sc1C(=O)N[C@H]1CCCNC1 [PHI-101],GI50,[1],33 nM
same,weight loss,[2],no weight loss
same,Kd,[3],27 nM
same,Kd,[4],2.1 nM
same,Kd,[5],4.8 nM
same,Kd,[6],39 nM
same,Kd,[7],1.3 nM
same,Kd,[8],26 nM
same,Kd,[9],16 nM
same,SubG1/G0-1 population (cell cycle progression),[10],SubG1/G0-1 population was increased
